Results published in ChEMBL document CHEMBL4828758, “Elucidation of Distinct Modular Assemblies of Smoothened Receptor by Bitopic Ligand Measurement” (J Med Chem, 2021).
pEC50, pIC50: −log10 of the molar value. Each block holds one molecule with its values, some of them ahead of it. Activity calls are given as the source filed them. The calls are words filed in the database; no cut-off is given here.

Columns and labels:
Type in all cases: functional, cell-based
Protein smoothened [1] = target: T1, Protein smoothened (Mus musculus, UniProt P56726); assay: Antagonist activity at SMO in mouse NIH3T3 cells preincubated for 2 hrs followed by SAG stimulation and measured after 24 hrs by Bright-Glo luciferase assay
[2] = target: Protein smoothened (Mus musculus) (UniProt P56726); assay: Agonist activity at SMO in mouse NIH3T3 cells assessed as induction of SMO accumulation in primary cilia incubated for 12 hrs by AlexaFluor 488/ DAPI staining based immunofluorescence method
[3] = target: Protein smoothened (Mus musculus) (UniProt P56726); assay: Agonist activity at SMO in mouse NIH3T3 cells assessed as induction of SMO accumulation in primary cilia incubated for 12 hrs by fluorescence method; details: filed as agonist
[4] = target: Protein smoothened (Mus musculus) (UniProt P56726); assay: Agonist activity at SMO in mouse NIH3T3 cells assessed as fluorescent intensity of ciliary SMO incubated for 12 hrs by fluorescence method; details: filed as agonist
Protein smoothened [5] = target: T1, Protein smoothened; assay: (§1) Agonist activity at SMO in mouse NIH3T3 cells incubated for 2 hrs by Bright-Glo luciferase assay
[6] = target: Protein smoothened (Mus musculus) (UniProt P56726); assay: as §1

Protein smoothened (Mus musculus), sequence (P56726 whole entry): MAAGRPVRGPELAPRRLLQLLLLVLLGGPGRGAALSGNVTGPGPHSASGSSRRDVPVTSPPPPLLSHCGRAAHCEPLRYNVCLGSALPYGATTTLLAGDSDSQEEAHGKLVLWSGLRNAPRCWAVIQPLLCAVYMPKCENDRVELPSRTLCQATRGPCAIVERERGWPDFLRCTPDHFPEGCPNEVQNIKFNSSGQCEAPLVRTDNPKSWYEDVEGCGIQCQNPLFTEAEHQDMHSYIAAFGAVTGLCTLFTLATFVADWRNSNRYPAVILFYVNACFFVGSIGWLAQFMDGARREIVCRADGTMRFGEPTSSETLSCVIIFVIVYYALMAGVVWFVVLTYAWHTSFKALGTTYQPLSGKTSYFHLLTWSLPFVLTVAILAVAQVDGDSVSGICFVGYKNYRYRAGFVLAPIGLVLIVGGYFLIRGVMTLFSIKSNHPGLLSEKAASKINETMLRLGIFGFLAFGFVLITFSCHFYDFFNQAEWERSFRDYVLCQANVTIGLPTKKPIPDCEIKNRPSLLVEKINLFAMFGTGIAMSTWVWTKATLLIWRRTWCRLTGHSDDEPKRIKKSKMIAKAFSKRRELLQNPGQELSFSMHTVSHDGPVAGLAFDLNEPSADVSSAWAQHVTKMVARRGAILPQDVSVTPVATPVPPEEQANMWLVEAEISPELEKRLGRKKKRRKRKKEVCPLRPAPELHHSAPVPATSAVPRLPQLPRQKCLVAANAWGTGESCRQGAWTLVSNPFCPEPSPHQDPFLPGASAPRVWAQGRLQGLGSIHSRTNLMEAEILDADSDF
T1 sequence (P56726 whole entry): as above

pIC50 (Protein smoothened [1]): 7.70
SMILES: CC(O)(CCCCCCOCCOCc1cn(CCOCCOCCS(=O)(=O)c2ccc(C(=O)Nc3ccc(Cl)c(-c4ccccn4)c3)c(Cl)c2)nn1)C1CC[C@H]2[C@@H]3CC=C4C[C@@H](O)CC[C@]4(C)[C@H]3CC[C@]12C (stereo partly specified)

Activity ([2]; filed as agonist): Active
Activity [3]: Active
Activity [4]: Active
SMILES: CN[C@H]1CC[C@H](N(Cc2cccc(-c3ccnc(OCCOCCOCCOCCn4cc(COCCOCCOCC(=O)N5C[C@@H](C)C[C@H]6O[C@]7(CC[C@@H]8C(=C7C)C[C@H]7[C@H]8CC=C8C[C@@H](O)CC[C@@]87C)[C@H](C)[C@@H]65)nn4)c3)c2)C(=O)c2sc3ccccc3c2Cl)CC1

pEC50 (Protein smoothened [5]): 6.09
SMILES: CN[C@H]1CC[C@H](N(Cc2cccc(-c3ccnc(OC)c3)c2)C(=O)c2sc3ccccc3c2Cl)CC1

Activity [6]: inactive
SMILES: CN[C@H]1CC[C@H](N(Cc2cccc(-c3ccnc(OCCOCCOCCOCCOCCOCCn4cc(COCCOCCOCCOCCOCCOCCOCCCCCCC(C)(O)C5CC[C@H]6[C@@H]7CC=C8C[C@@H](O)CC[C@]8(C)[C@H]7CC[C@]56C)nn4)c3)c2)C(=O)c2sc3ccccc3c2Cl)CC1 (stereo partly specified)

pEC50 (Protein smoothened [5]): 7.77
Activity [3]: Active
Activity [4]: Active
SMILES: CN[C@H]1CC[C@H](N(Cc2cccc(-c3ccncc3)c2)C(=O)c2sc3ccccc3c2Cl)CC1

Activity [6]: inactive
SMILES: CN[C@H]1CC[C@H](N(Cc2cccc(-c3ccnc(OCCn4cc(COCCCCCCC[C@](C)(O)[C@H]5CC[C@H]6[C@@H]7CC=C8C[C@@H](O)CC[C@]8(C)[C@H]7CC[C@@]65C)nn4)c3)c2)C(=O)c2sc3ccccc3c2Cl)CC1

pIC50 (Protein smoothened [1]): 7.70
SMILES: CC(O)(CCCCCCOCCOCCOCCOCCOCCOCCOCc1cn(CCOCCOCCOCCOCCOCCS(=O)(=O)c2ccc(C(=O)Nc3ccc(Cl)c(-c4ccccn4)c3)c(Cl)c2)nn1)C1CC[C@H]2[C@@H]3CC=C4C[C@@H](O)CC[C@]4(C)[C@H]3CC[C@]12C (stereo partly specified)

pEC50 (Protein smoothened [5]): 6.02
SMILES: CN[C@H]1CC[C@H](N(Cc2cccc(-c3ccnc(OCCOCCOCCOCCn4cc(COCCO)nn4)c3)c2)C(=O)c2sc3ccccc3c2Cl)CC1

pEC50 (Protein smoothened [5]): 8.10
SMILES: CN[C@H]1CC[C@H](N(Cc2cccc(-c3ccnc(OCCOCCOCCOCCn4cc(COCCCCCC[C@](C)(O)C5CC[C@H]6[C@@H]7CC=C8C[C@@H](O)CC[C@]8(C)[C@H]7CC[C@]56C)nn4)c3)c2)C(=O)c2sc3ccccc3c2Cl)CC1 (stereo partly specified)

pEC50 (Protein smoothened [5]): 8.10
SMILES: CN[C@H]1CC[C@H](N(Cc2cccc(-c3ccnc(OCCOCCOCCOCCn4cc(COCCOCCOCCCCCC[C@](C)(O)C5CC[C@H]6[C@@H]7CC=C8C[C@@H](O)CC[C@]8(C)[C@H]7CC[C@]56C)nn4)c3)c2)C(=O)c2sc3ccccc3c2Cl)CC1 (stereo partly specified)

pEC50 (Protein smoothened [5]): < 4.00
SMILES: CC(O)(CCCCCCOCCOCc1cn(CCOCCOCCOCCO)nn1)C1CC[C@H]2[C@@H]3CC=C4C[C@@H](O)CC[C@]4(C)[C@H]3CC[C@]12C (stereo partly specified)

Activity [6]: inactive
SMILES: CN[C@H]1CC[C@H](N(Cc2cccc(-c3ccnc(OCCOCCOCCOCCn4cc(COCCOCCOCCOCCCCCC[C@](C)(O)C5CC[C@H]6[C@@H]7CC=C8C[C@@H](O)CC[C@]8(C)[C@H]7CC[C@]56C)nn4)c3)c2)C(=O)c2sc3ccccc3c2Cl)CC1 (stereo partly specified)

Activity [6]: inactive
SMILES: CN[C@H]1CC[C@H](N(Cc2cccc(-c3ccnc(OCCOCCOCCOCCn4cc(COCCOCCOCCOCCOCCCCCC[C@](C)(O)C5CC[C@H]6[C@@H]7CC=C8C[C@@H](O)CC[C@]8(C)[C@H]7CC[C@]56C)nn4)c3)c2)C(=O)c2sc3ccccc3c2Cl)CC1 (stereo partly specified)

pEC50 (Protein smoothened [5]): 6.70
SMILES: CN[C@H]1CC[C@H](N(Cc2cccc(-c3ccnc(OCCOCCOCCOCCn4cc(COCCOCCOCCOCCCCCC[C@@H](C)C5CC[C@H]6[C@@H]7CC=C8C[C@@H](O)CC[C@]8(C)[C@H]7CC[C@]56C)nn4)c3)c2)C(=O)c2sc3ccccc3c2Cl)CC1 (stereo partly specified)

pIC50 (Protein smoothened [1]): 7.70
SMILES: CC(O)(CCCCCCOCCOCCOCCOCCOCc1cn(CCOCCOCCOCCOCCOCCS(=O)(=O)c2ccc(C(=O)Nc3ccc(Cl)c(-c4ccccn4)c3)c(Cl)c2)nn1)C1CC[C@H]2[C@@H]3CC=C4C[C@@H](O)CC[C@]4(C)[C@H]3CC[C@]12C (stereo partly specified)

Activity [6]: inactive
Activity ([2]; filed as agonist): Active
Activity [3]: Active
Activity [4]: Active
SMILES: CN[C@H]1CC[C@H](N(Cc2cccc(-c3ccnc(OCCOCCOCCOCCn4cc(COCCOCCCCCC[C@](C)(O)C5CC[C@H]6[C@@H]7CC=C8C[C@@H](O)CC[C@]8(C)[C@H]7CC[C@]56C)nn4)c3)c2)C(=O)c2sc3ccccc3c2Cl)CC1 (stereo partly specified)

SMILES: CC1=C2C[C@H]3[C@@H](CC=C4C[C@@H](O)CC[C@@]43C)[C@@H]2CC[C@]12O[C@@H]1C[C@H](C)CN[C@H]1[C@H]2C
Activity [3]: Active
Activity [4]: Active

pIC50 (Protein smoothened [1]): 7.70
SMILES: CC(O)(CCCCCCOCCOCc1cn(CCOCCOCCOCCOCCS(=O)(=O)c2ccc(C(=O)Nc3ccc(Cl)c(-c4ccccn4)c3)c(Cl)c2)nn1)C1CC[C@H]2[C@@H]3CC=C4C[C@@H](O)CC[C@]4(C)[C@H]3CC[C@]12C (stereo partly specified)

Activity [2]: inactive
SMILES: C[C@H](CCCCCCOCCOCc1cn(CCOCCOCCOCCOCCOCCS(=O)(=O)c2ccc(C(=O)Nc3ccc(Cl)c(-c4ccccn4)c3)c(Cl)c2)nn1)C1CC[C@H]2[C@@H]3CC=C4C[C@@H](O)CC[C@]4(C)[C@H]3CC[C@]12C (stereo partly specified)

Activity [6]: inactive
SMILES: CN[C@H]1CC[C@H](N(Cc2cccc(-c3ccnc(OCCOCCOCCOCCOCCn4cc(COCCOCCOCCOCCOCCOCCOCCCCCCC(C)(O)C5CC[C@H]6[C@@H]7CC=C8C[C@@H](O)CC[C@]8(C)[C@H]7CC[C@]56C)nn4)c3)c2)C(=O)c2sc3ccccc3c2Cl)CC1 (stereo partly specified)

Activity [6]: inactive
SMILES: CN[C@H]1CC[C@H](N(Cc2cccc(-c3ccnc(OCCOCCOCCOCCn4cc(COCCOCCOCCOCCOCCOCCCCCC[C@](C)(O)C5CC[C@H]6[C@@H]7CC=C8C[C@@H](O)CC[C@]8(C)[C@H]7CC[C@]56C)nn4)c3)c2)C(=O)c2sc3ccccc3c2Cl)CC1 (stereo partly specified)

pEC50 (Protein smoothened [5]): 6.70
SMILES: CN[C@H]1CC[C@H](N(Cc2cccc(-c3ccnc(OCCOCCOCCOCCOCCOCCn4cc(COCCOCCOCCOCCOCCOCCOCCOCCOCCCCCC[C@@H](C)C5CC[C@H]6[C@@H]7CC=C8C[C@@H](O)CC[C@]8(C)[C@H]7CC[C@]56C)nn4)c3)c2)C(=O)c2sc3ccccc3c2Cl)CC1 (stereo partly specified)

pEC50 (Protein smoothened [5]): 6.70
SMILES: CN[C@H]1CC[C@H](N(Cc2cccc(-c3ccnc(OCCOCCOCCOCCn4cc(COCCOCCOCCOCCOCCOCCOCCCCCC[C@@H](C)C5CC[C@H]6[C@@H]7CC=C8C[C@@H](O)CC[C@]8(C)[C@H]7CC[C@]56C)nn4)c3)c2)C(=O)c2sc3ccccc3c2Cl)CC1 (stereo partly specified)

Activity [6]: inactive
Activity [2]: inactive
pIC50 (Protein smoothened [1]): 7.70
SMILES: CC(O)(CCCCCCOCCOCc1cn(CCOCCOCCOCCOCCOCCS(=O)(=O)c2ccc(C(=O)Nc3ccc(Cl)c(-c4ccccn4)c3)c(Cl)c2)nn1)C1CC[C@H]2[C@@H]3CC=C4C[C@@H](O)CC[C@]4(C)[C@H]3CC[C@]12C (stereo partly specified)

pIC50 (Protein smoothened [1]): 5.52
SMILES: [N-]=[N+]=NCCOCCOCCOCCOCCOCCS(=O)(=O)c1ccc(C(=O)Nc2ccc(Cl)c(-c3ccccn3)c2)c(Cl)c1

pIC50 (Protein smoothened [1]): 7.70
SMILES: CC(O)(CCCCCCOCCOCc1cn(CCOCCOCCOCCS(=O)(=O)c2ccc(C(=O)Nc3ccc(Cl)c(-c4ccccn4)c3)c(Cl)c2)nn1)C1CC[C@H]2[C@@H]3CC=C4C[C@@H](O)CC[C@]4(C)[C@H]3CC[C@]12C (stereo partly specified)

Activity [6]: inactive
SMILES: CN[C@H]1CC[C@H](N(Cc2cccc(-c3ccnc(OCCOCCn4cc(COCCCCCC[C@](C)(O)[C@H]5CC[C@H]6[C@@H]7CC=C8C[C@@H](O)CC[C@]8(C)[C@H]7CC[C@@]65C)nn4)c3)c2)C(=O)c2sc3ccccc3c2Cl)CC1

pEC50 (Protein smoothened [5]): < 4.00
SMILES: CC(O)(CCCCCCO)C1CC[C@H]2[C@@H]3CC=C4C[C@@H](O)CC[C@]4(C)[C@H]3CC[C@]12C (stereo partly specified)

Activity [6]: inactive
SMILES: CN[C@H]1CC[C@H](N(Cc2cccc(-c3ccnc(OCCOCCOCCOCCn4cc(COCCOCCOCCOCCOCCOCCOCCCCCC[C@](C)(O)C5CC[C@H]6[C@@H]7CC=C8C[C@@H](O)CC[C@]8(C)[C@H]7CC[C@]56C)nn4)c3)c2)C(=O)c2sc3ccccc3c2Cl)CC1 (stereo partly specified)

Activity ([2]; filed as agonist): Active
Activity [3]: Active
Activity [4]: Active
SMILES: CN[C@H]1CC[C@H](N(Cc2cccc(-c3ccnc(OCCOCCOCCOCCn4cc(COCCOCCC#CCCC(C)(O)C5CC[C@H]6[C@@H]7CC=C8C[C@@H](O)CC[C@]8(C)[C@H]7CC[C@]56C)nn4)c3)c2)C(=O)c2sc3ccccc3c2Cl)CC1 (stereo partly specified)

pEC50 (Protein smoothened [5]): 6.70
Activity ([2]; filed as agonist): Active
Activity [3]: Active
Activity [4]: Active
SMILES: CN[C@H]1CC[C@H](N(Cc2cccc(-c3ccnc(OCCOCCOCCOCCn4cc(COCCOCCCCCC[C@@H](C)C5CC[C@H]6[C@@H]7CC=C8C[C@@H](O)CC[C@]8(C)[C@H]7CC[C@]56C)nn4)c3)c2)C(=O)c2sc3ccccc3c2Cl)CC1 (stereo partly specified)

pIC50 (Protein smoothened [1]): 7.70
SMILES: CC(O)(CCCCCCOCCOCCOCc1cn(CCOCCOCCOCCOCCOCCS(=O)(=O)c2ccc(C(=O)Nc3ccc(Cl)c(-c4ccccn4)c3)c(Cl)c2)nn1)C1CC[C@H]2[C@@H]3CC=C4C[C@@H](O)CC[C@]4(C)[C@H]3CC[C@]12C (stereo partly specified)

pEC50 (Protein smoothened [5]): 6.70
SMILES: CN[C@H]1CC[C@H](N(Cc2cccc(-c3ccnc(OCCOCCOCCOCCOCCOCCn4cc(COCCOCCOCCOCCOCCOCCOCCCCCC[C@@H](C)C5CC[C@H]6[C@@H]7CC=C8C[C@@H](O)CC[C@]8(C)[C@H]7CC[C@]56C)nn4)c3)c2)C(=O)c2sc3ccccc3c2Cl)CC1 (stereo partly specified)

pEC50 (Protein smoothened [5]): 8.10
SMILES: CN[C@H]1CC[C@H](N(Cc2cccc(-c3ccnc(OCCOCCOCCn4cc(COCCCCCCC(C)(O)C5CC[C@H]6[C@@H]7CC=C8C[C@@H](O)CC[C@]8(C)[C@H]7CC[C@]56C)nn4)c3)c2)C(=O)c2sc3ccccc3c2Cl)CC1 (stereo partly specified)

pEC50 (Protein smoothened [5]): 6.70
SMILES: CN[C@H]1CC[C@H](N(Cc2cccc(-c3ccnc(OCCOCCOCCOCCOCCOCCn4cc(COCCOCCOCCOCCOCCOCCOCCOCCCCCC[C@@H](C)C5CC[C@H]6[C@@H]7CC=C8C[C@@H](O)CC[C@]8(C)[C@H]7CC[C@]56C)nn4)c3)c2)C(=O)c2sc3ccccc3c2Cl)CC1 (stereo partly specified)

pIC50 (Protein smoothened [1]): 7.70
SMILES: CC(O)(CCCCCCOCCOCCOCCOCCOCCOCCOCCOCCOCc1cn(CCOCCOCCOCCOCCOCCS(=O)(=O)c2ccc(C(=O)Nc3ccc(Cl)c(-c4ccccn4)c3)c(Cl)c2)nn1)C1CC[C@H]2[C@@H]3CC=C4C[C@@H](O)CC[C@]4(C)[C@H]3CC[C@]12C (stereo partly specified)
